ChEMBL document CHEMBL4819116, “Design, synthesis, and biological evaluation of stapled ascaphin-8 peptides” (Bioorg Med Chem, 2021)
Where a SMILES comes first, the peptide text is derived from it. Bridges are numbered along the chain shown (N, C = ends). [ ]: non-standard residue; d: D form. S8 = C=CCCCCCC[C@](C)(N)C(=O)O; S5 = C=CCCC[C@](C)(N)C(=O)O

Key:
LNCaP C4-2B = experiment: Cytotoxicity against human LNCaP C4-2B cells assessed as reduction in cell viability measured after 96 hrs b y CCK-8 assay; assay type: functional, cell-based
HEK-293T = experiment: Cytotoxicity against human HEK293T cells assessed as reduction in cell viability measured after 96 hrs b y CCK-8 assay; assay type: cell-based
trypsin [1] = molecular target: T1, trypsin (Homo sapiens, UniProt P07477+P07478+P35030); experiment: Stability of the compound assessed as trypsin (unknown origin)-mediated degradation by measuring half life using pH 7.4 PBS buffer by HPLC analysis; assay type: ADME, protein assay; conditions: trypsin in PBS buffer
A549 [2] = experiment: Antimigratory activity against human A549 cells assessed as inhibition of cell migration measured for 24 hrs by crystal violet staining - light microscopy based transwell migration assay; assay type: functional; conditions: dose 0-4 µM
A549 [3] = experiment: Inhibition of colony formation in human A549 cells measured after 14 days by crystal violet staining based light microscopy; assay type: functional, cell-based; conditions: dose 0-4 µM, time 14.0 day
[4] = Hemolytic activity in rabbit red blood cells assessed as hemoglobin release; assay type: ADME, cell-based, Oryctolagus cuniculus, Erythrocyte
A549 [5] = experiment: Cytotoxicity against human A549 cells assessed as reduction in cell viability measured after 96 hrs b y CCK-8 assay; assay type: functional, cell-based; conditions: A549, 96 h
[6] = Helicity of the compound in TFE aqueous solution by CD spectroscopy; assay type: physicochemical; conditions: buffer
trypsin [7] = molecular target: T1, trypsin; experiment: Stability of the compound assessed as trypsin (unknown origin)-mediated degradation using pH 7.4 PBS buffer measured for 60 mins by HPLC analysis; assay type: ADME, protein assay; conditions: trypsin in PBS buffer, read-out: Drug degradation

`CC(C)C[C@H](NC(=O)[C@H](CC(C)C)NC(=O)[C@H](CC(=O)O)NC(=O)[C@H](CCCCN)NC(=O)[C@H](Cc1ccccc1)NC(=O)CN)C(=O)N[C@@H](CCCCN)C(=O)NCC(=O)N[C@@H](C)C(=O)N[C@@H](C)C(=O)N[C@@H](CCCCN)C(=O)N[C@@]1(C)CCC/C=C\CCC[C@@](C)(C(=O)N[C@H](C(=O)N[C@@H](CC(C)C)C(=O)N[C@@H](Cc2ccccc2)C(N)=O)C(C)C)NC(=O)[C@H](CCCCN)NC(=O)[C@H](C(C)C)NC(=O)[C@H](CC(C)C)NC1=O` (H-GFKDLLKGAAK[S5]LVK[S5]VLF-NH2; staple (Z) 12-16) gave an IC50 (LNCaP C4-2B) of 7.17 µM, an IC50 (HEK-293T) of 16.4 µM and a half-life (trypsin [1]) of 36 min. For the same molecule, the Activity (A549 [2]) was “Dose-Dependent Effect”, the inhibition (A549 [3]) was “Dose-Dependent Effect” and the HC50 [4] was 40.6 µM. It also gave an IC50 (A549 [5]) of 2.39 µM and an Activity [6] of 51%.
`CC(C)C[C@@H]1NC(=O)[C@H](C)NC(=O)[C@H](CCCCN)NC(=O)[C@H](C)NC(=O)[C@@](C)(NC(=O)CNC(=O)[C@H](CCCCN)NC(=O)[C@H](CC(C)C)NC(=O)[C@H](CC(C)C)NC(=O)[C@H](CC(=O)O)NC(=O)[C@H](CCCCN)NC(=O)[C@H](Cc2ccccc2)NC(=O)CN)CCCCCC/C=C/CCC[C@@](C)(C(=O)N[C@H](C(=O)N[C@@H](CC(C)C)C(=O)N[C@@H](Cc2ccccc2)C(N)=O)C(C)C)NC(=O)[C@H](CCCCN)NC(=O)[C@H](C(C)C)NC1=O` (H-GFKDLLKG[S8]AKALVK[S5]VLF-NH2; staple (E) 9-16) showed an IC50 (LNCaP C4-2B) of 17.3 µM, an IC50 (HEK-293T) of 44.3 µM and an HC50 [4] of 90.5 µM. The IC50 (A549 [5]) was 11.7 µM and the Activity [6] was 80%.
In the case of `CC(C)C[C@H](NC(=O)[C@H](CC(=O)O)NC(=O)[C@H](CCCCN)NC(=O)[C@H](Cc1ccccc1)NC(=O)CN)C(=O)N[C@@H](CC(C)C)C(=O)N[C@@H](CCCCN)C(=O)N[C@@]1(C)CCC/C=C\CCC[C@@](C)(C(=O)N[C@@H](CC(C)C)C(=O)N[C@H](C(=O)N[C@@H](CCCCN)C(=O)N[C@H](C(=O)N[C@H](C(=O)N[C@@H](CC(C)C)C(=O)N[C@@H](Cc2ccccc2)C(N)=O)C(C)C)[C@@H](C)O)C(C)C)NC(=O)[C@H](CCCCN)NC(=O)[C@H](C)NC(=O)[C@H](C)NC1=O` (H-GFKDLLK[S5]AAK[S5]LVKTVLF-NH2; staple (Z) 8-12), the IC50 (LNCaP C4-2B) is reported as 7.88 µM, the IC50 (HEK-293T) is reported as 19.7 µM and the HC50 [4] is reported as 40.2 µM. The IC50 (A549 [5]) was 2.57 µM and the Activity [6] was 48%.
`CC(C)C[C@H](NC(=O)[C@H](C)NC(=O)[C@H](CCCCN)NC(=O)[C@H](C)NC(=O)[C@H](C)NC(=O)[C@]1(C)CCC/C=C\CCC[C@](C)(NC(=O)[C@H](CCCCN)NC(=O)[C@H](Cc2ccccc2)NC(=O)CN)C(=O)N[C@@H](CC(C)C)C(=O)N[C@@H](CC(C)C)C(=O)N[C@@H](CCCCN)C(=O)N1)C(=O)N[C@H](C(=O)N[C@@H](CCCCN)C(=O)N[C@H](C(=O)N[C@H](C(=O)N[C@@H](CC(C)C)C(=O)N[C@@H](Cc1ccccc1)C(N)=O)C(C)C)[C@@H](C)O)C(C)C` (H-GFK[S5]LLK[S5]AAKALVKTVLF-NH2; staple (Z) 4-8) showed an IC50 (LNCaP C4-2B) of 11.1 µM, an IC50 (HEK-293T) of 33.9 µM and an HC50 [4] of 79.9 µM. The IC50 (A549 [5]) was 4.1 µM and the Activity [6] was 42%.
Molecule H-GFKDLLKGAAKALVKTVLF-NH2 [Ascaphin-8] has an IC50 (LNCaP C4-2B) of 42.9 µM, an IC50 (HEK-293T) of 53.7 µM and a metabolised at 1 h (trypsin [7]) of 100%. For the same molecule, the half-life (trypsin [1]) was 14 min, the HC50 [4] was greater than 100 µM and the IC50 (A549 [5]) was 33.8 µM. It also gave an Activity [6] of 47%.
